# Experiments:
# [1] = tested on: latent HIV-1 in CD4+ T cells from HIV-1-infected individuals; assay: Intracellular HIV-1 mRNA (ddPCR) in CD4+ T cells from HIV-1-infected individuals treated ex vivo; format: cell-based
# Source text: Four aviremic HIV-1-infected individuals were recruited from the SCOPE cohorts at the University of California. San Francisco. Table 2 details the characteristics of the study participants.
# Peripheral blood mononuclear cells (PBMCs) from whole blood or continuous flow centrifugation leukapheresis product were purified using density centrifugation on a Ficoll-Hypaque gradient. Resting CD4^+ lymphocytes were enriched by negative depletion with an EasySepHuman CD4^+ T Cell Isolation Kit (Stemcell). Cells were cultured in RPMI medium supplemented with 10% fetal bovine serum, penicillin/streptomycin and 5 μM saquinavir. Five million resting CD4′ lymphocytes were stimulated with latency-reversing agents (LRAs) at the indicated concentrations (20-500 nM AZ391, 100 nM JQ1, 25 μl/1×10^6 T cells αCD3/αCD28 Dynabeads (Life Technologies) for 48 hours. After LRA treatment, cells were collected, lysed and total RNA was isolated with an RNeasy kit (Quiagen). A Superscript III One-Step RT-PCR system (Life Technologies) was used to generate and pre-amplify cell-associated viral mRNA. Reaction mixes contained 15 μl of a PCR mix containing reaction mix, Superscript III, primers (900 nM final concentration) and 10 μl purified RNA. Pre-amplification was carried out using the following steps: reverse transcription at 50° C. for 30 min, denaturation at 95° C. for 2 min, 10 cycles of amplification (94° C. 15 s, 55° C. 30 s, 68° C. 5 min) on a GeneAmp PCR system 9700 (Thermo Fisher). Subsequently, droplet digital PCR (ddPCR) was applied to quantify pre-amplified cDNA. Each 25 μl ddPCR mix comprised the ddPCR Probe Supermix (no dUTP), 900 nM primers, 250 nM probe, and 4 μl cDNA. The following cycling conditions were used: 10 minutes at 95° C. […] Finally, samples were amplified on a BioRad C1000 Thermocycler and analyzed using a BioRad QX100 ddPCR Reader. […]
# Next, AZ391 was tested in CD4^+ T cells from HIV-1-infected individuals on suppressive ART. […] After 48 hours, levels of intracellular HIV-1 mRNA were measured by droplet digital RT-PCR using a previously published primer/probe set (Laird et al., 2015). […]
# [2] = tested on: CD4+ T cells from HIV-1-infected individuals; assay: T-cell activation markers CD69 and CD25, flow cytometry; format: cell-based, human; settings: at the indicated concentrations (up to 500 nM)
# Source text: FIGS. 15 A-G depict the structural formulae for AZ505, AZ506, and AZ391, and the reactivation of latent HIV-1 with SMYD2 inhibitor X2 (AZ391) in CD4^+ T cells from HIV-1 infected individuals. (A) Structures of each compound are shown. (B) Intracellular HIV-1 mRNA levels in CD4^+ T cells, obtained from an infected individual (#1036) and treated ex vivo with AZ391, JQ1 or a combination of both, in indicated concentrations, presented as fold induction relative to DMSO control. Activation with αCD3/αCD28-Dynabeads was performed as control. (C) Flow cytometry of T-cell activation markers CD69 and CD25 in the same experiment. For each treatment group, CD69^+ (left) and CD25^+ (right). Shown as percentage of positive cells relative to αCD3/αCD28-treated cells (D) Cell viability as measured by CellTiter-Blue® Cell Viability assay (Promega) and Zombie Violet Fixable Viability kit (BioLegend) and presented as percentage of DMSO control treated cells. Data points indicate average of three technical replicates of donor #1036. (E-G) Same experiments as in b-d but performed with CD4^+ T cells obtained from three additional individuals (2013, 2185, 2511) with a single concentration of AZ391 (500 nM). In f and g, average of the three biological replicates (±SD) is show. For (F), for each treatment group, CD69^+ (left) and CD25^+ (right). […]
smiles,measurement,setting,value
N#Cc1cc(C(=O)NCCCN2CCCC2)cc(-c2ccccc2N2CCN(CCc3c[nH]c4ccccc34)CC2)c1 [AZ391],mean increase of intracellular HIV-1 mRNA levels,"[1]; 500 nM, 48 hours, three additional donors",1.5-10 fold
same,"intracellular HIV-1 mRNA, combination effect",[1]; combination with JQ1,no additive or synergistic effects
same,intracellular HIV-1 mRNA levels,"[1]; increasing concentrations (maximal 500 nM), 48 hours, one individual",increased intracellular HIV-1 mRNA levels in a dose-dependent manner
same,"global T-cell activation (CD69, CD25)",[2],No increase in global T-cell activation

# Source: patent US11807852B2, “Compositions and methods for reactivating latent immunodeficiency virus” (The J. David Gladstone Institutes, a testamentary trust …, priority 2014, dated 2023)
